Several values for one entry are separate records, joined by “and”; a condition that tells them apart may be missing. Equal entries are not always repeated.
Assays:
Assay type in all cases: cell-based, human
[1] = test system: telomeres, 36B4, MT-COX1, MT-CYB DNA of PANC1 cells; assay: Oxidized bases (FPG-sensitive lesions) in genome regions by qPCR; settings: PANC1, IC50 concentration 24 h, normalized to control, single replicates
Text: (§1) Total cellular DNA from MKN45 and PANC1 cells was extracted using an NZY Tissue gDNA Isolation Kit (Nzytech, MB13503) following the manufacturer’s instructions and quantified using a Nanodrop (Nanodrop Spectrophotometer ND-1000, ThermoFisher Scientific, Wilmington, DE, USA). We adapted the procedure described by O’Callaghan et al.[76] to measure oxidative DNA damage at telomeres, 36B4 genomic region and at mitochondrial DNA (MT-COX1, MT-CYB). This is a qPCR method based on differences in PCR kinetics between DNA template digested by Formamidopyrimidine DNA Glycosylase (FPG, Cat no. M0240S) and undigested DNA. This enzyme recognizes and cuts 8-oxoguanine, producing apurinic sites that are converted into single-strand breaks by its apurinic sites lyase activity. These single-strand breaks inhibit the PCR, thus, the ΔCT after digesting DNA by […] (Ct digested–Ct undigested) is proportional to the oxidative damage in the amplified region. DNA was incubated with 8 Units of FPG during 3 h in FPG buffer (NEB1, M0240S). The reaction was stopped by incubation at 95 °C for 5 min. qPCR analysis was performed on 40 ng of digested or undigested genomic DNA. Each qPCR was performed in triplicate including no-template controls in a StepOne Real‐time PCR System (Applied Biosystems, 4376357). Target genes (Table 3) were amplified using SYBR Green (Applied Biosystems, MB345). Thermal cycling of the qPCR reaction was initiated with a denaturation step at 95 °C for 10 min. The process consisted of 40 cycles (denaturation at 95 °C for 15 sec, annealing at 60 °C for 30 sec, and elongation at 72 °C for 30 sec). This experiment was repeated three independent times with 10–12 replicates.

[2] = test system: telomeres, 36B4, MT-COX1, MT-CYB DNA of MKN45 cells; assay: as above; settings: MKN45, IC50 concentration 24 h, normalized to control, single replicates
Text: as §1

PANC1 cells [3] = assay: Flow cytometry mitochondrial mass and membrane potential (MitoTracker Green / CMXRos)
Description: (§2) We used flow cytometry to study the mitochondrial mass, mitochondrial membrane potential (ΔΨm) and cellular senescence of untreated and treated cells. Cells (5 × 10^4) were seeded in 24-multiwell dishes and cultured overnight. […] Cells were tripsinized, stained with Mitoprobes and resuspended in Flow buffer [1X PBS; 3% Fetal Bovine Serum (v/v); 3 mM EDTA (v/v)] before analysis with a 4-laser Attune NxT Acoustic Cytometer (Thermo Fisher Scientific). For Mitoprobe assays, […] DAPI (Sigma) was used to exclude dead cells. Data were analyzed with FlowJo 9.3 software (Tree Star Inc., Ashland, OR). For mitochondrial mass and ΔΨm measurement, Mitotracker Green (MTGreen, M7514, Invitrogen) and Mitotracker Red CMXRos (CMXROS, M7512, Invitrogen) were used, respectively. Probes were incubated with cells for 30 min at 37 °C at a concentration of 100 nM (MTGreen) and 20 nM (CMXROS), and fluorescence was detected using the filters (Ex488nm/Em530/30) BL1 and (Ex561nm/Em585/16) YL1, respectively. To determine mitochondria functionality, the ratio between ΔΨm (MitoTracker Red CMXRos) versus Mit. Mass (MitoTracker Green) was calculated. The gating strategy used in all the Flow Cytometry experiments is reflected in Fig.S10.

AGS cells [4] = assay: as above; settings: fold change vs C, replicates
Description: as §2

MKN45 cells [5] = assay: as above
Description: as §2

PANC1 cells [6] = assay: RT-qPCR gene expression (CDKN1A, IL6, MMP1, MAP2K3, SOD1, SOD2, CAT, MKI67, TNFRSF10D)
Description: (§3) Total cellular RNA was extracted using Tri-Reagent (Life Technologies), following the manufacturer’s instructions. One μg of total RNA was primed with random primers and cDNA synthesized with an M-MLV reverse transcriptase following the manufacturer’s instructions (Promega). Target genes were amplified using a SYBR Green polymerase chain reaction assay, working with the specific primer sets listed in Table 4.
(§4) Thermal cycling of the qPCR reaction was initiated with a denaturation step at 95 °C for 10 min. The process consisted of 40 cycles (denaturation at 95 °C for 15 sec, annealing at 60 °C for 30 sec, and elongation at 75 °C for 30 sec). PCR amplifications were carried out in a StepOne Real‐time PCR System (Applied Biosystems, 4376357). Relative mRNA levels were calculated by the delta-Ct method (2-ΔΔCt), where each 1-Ct difference equals a two-fold change in transcript abundance, using GAPDH as an endogenous gene reference. ΔΔCT represents the difference between the mean ΔCT value of the cells tested and the mean ΔCT value of the calibrator, both calculated for the same PCR run.

AGS cells [7] = assay: as above
Description: as §3, §4

MKN45 cells [8] = assay: as above
Description: as §3, §4

[9] = PANC1, fold change vs C, replicates
[10] = MKN45, fold change vs C, replicates
[11] = PANC1, Fig. 3C, replicate values
[12] = MKN45, Fig. 3C, replicate values

CC(C)[NH][Pt@SP3]([I])([I])[NH]C(C)C [I5, trans-[PtI2(isopropylamine)2]]
TEL (Fold change - ΔCt TEL), oxidative DNA damage ([1]; FPG-digested vs undigested): -0.2993 and -0.2888 and -0.1094 and 0.05784 and 0.7794 and 0.6409 and 1.117 and 1.284 and 1.153 and 1.2407 | 36B4 (Fold change - ΔCt 36B4), oxidative DNA damage [1]: 1.4221 and 1.29 and 0.7644 and 2.073 and 2.467 and 2.333 and 2.539 and 4.489 and 2.165 and 1.996 and 1.737 | MT-COX1 (Fold change - ΔCt MT-COX1), oxidative DNA damage [1]: 1.203 and 1.298 and 1.208 and 1.316 and 1.536 and 0.9948 and 1.085 and 1.109 and 1.083 and 1.329 | MT-CYB (Fold change - ΔCt MT-CYB), oxidative DNA damage [1]: 1.015 and 1.063 and 1.122 and 1.165 and 2.0159 and 1.972 and 2.298 and 2.283 and 3.887 and 4.47 and 3.714 and 6.805 | TEL (Fold change - ΔCt TEL), oxidative DNA damage ([2]; FPG-digested vs undigested): 0.4976 and 1.204 and 0.863 and 1.649 and 1.472 and 1.233 and 1.0991 and 1.079 and 1.087 and 1.22 | 36B4 (Fold change - ΔCt 36B4), oxidative DNA damage [2]: 1.703 and 1.211 and 0.8373 and 1.374 and 1.447 and 1.358 and 1.5791 and 1.8961 and 1.25 and 1.252 and 1.777 | MT-COX1 (Fold change - ΔCt MT-COX1), oxidative DNA damage [2]: 1.17 and 1.1588 and 1.212 and 1.316 and 0.8751 and 0.7769 and 2.591 and 2.527 and 2.762 and 3.255 | MT-CYB (Fold change - ΔCt MT-CYB), oxidative DNA damage [2]: 1.053 and 0.8867 and 1.024 and 1.423 and 1.446 and 1.223 and 1.361 and 1.391 and 5.526 and 1.559 and 1.507 and 3.466 | Fold change ΔΨm/MM (PANC1 cells [3]; PANC1, IC50 doses 24 h, CMX-ROS/MitoGreen ratio vs untreated 1.0): 0.46 and 0.55 and 0.5 | Fold change %CMXROS, ΔΨm (PANC1 cells [3]; [9]): 1.17 and 1.2 and 1.05 | Fold change %MTGreen, MM (PANC1 cells [3]; [9]): 2.17 and 2.54 and 2.28 | Fold change %CMXROS, ΔΨm (AGS cells [4]): 0.96 and 0.93 and 0.85 | Fold change %MTGreen, MM (AGS cells [4]): 1.08 and 1.04 and 1.0618 | Fold change ΔΨm/MM (MKN45 cells [5]; MKN45, IC50 doses 24 h, CMX-ROS/MitoGreen ratio vs untreated 1.0): 0.47 and 0.42 and 0.46 | Fold change %CMXROS, ΔΨm (MKN45 cells [5]; [10]): 0.4 and 0.35 and 0.72 | Fold change %MTGreen, MM (MKN45 cells [5]; [10]): 0.86 and 0.82 and 1.11 | MKI67 Fold change vs GAPDH (PANC1 cells [6]; PANC1, Fig. S4C): 1.955 fold change and 1.4208 fold change and 2.69 fold change | TNFRSF10D Fold change vs GAPDH (PANC1 cells [6]; PANC1, Fig. S4C): 5.496 fold change and 3.924 fold change and 7.699 fold change | CAT (Fold change vs GAPDH) (PANC1 cells [6]; PANC1, mRNA vs Control = 1): 1.529 Fold change and 1.325 Fold change and 1.766 Fold change | SOD1 (Fold change vs GAPDH) (PANC1 cells [6]; PANC1, mRNA vs Control = 1): 1.806 Fold change and 1.686 Fold change and 1.679 Fold change | SOD2 (Fold change vs GAPDH) (PANC1 cells [6]; PANC1, mRNA vs Control = 1): 0.6164 Fold change and 0.5428 Fold change and 0.7 Fold change | CDKN1A, Fold change vs GAPDH (PANC1 cells [6]; [11]): 4.551 fold change and 3.906 fold change and 5.303 fold change | IL-6, Fold change vs GAPDH (PANC1 cells [6]; [11]): 7.572 fold change and 6.429 fold change and 8.917 fold change | MMP-1, Fold change vs GAPDH (PANC1 cells [6]; [11]): 12.6345 fold change and 9.391 fold change and 8.708 fold change | Fold change MAP2K3 vs GAPDH (PANC1 cells [6]; PANC1, Fig. 4B, replicate values): 3.332 fold change and 2.993 fold change and 3.71 fold change | CDKN1A, Fold change vs GAPDH (AGS cells [7]; Fig. 3C, replicate values): 3.618 fold change and 2.316 fold change and 5.653 fold change | IL-6, Fold change vs GAPDH (AGS cells [7]; Fig. 3C, replicate values): 2.065 fold change and 3.223 fold change and 3.287 fold change | MMP-1, Fold change vs GAPDH (AGS cells [7]; Fig. 3C, replicate values): 226.834 fold change and 185.054 fold change and 278.046 fold change | Fold change MAP2K3 vs GAPDH (AGS cells [7]; Fig. 4B, replicate values): 4.889 fold change and 4.056 fold change and 5.8931 fold change | MKI67 Fold change vs GAPDH (AGS cells [7]; Fig. S4C): 0.1267 fold change and 0.1149 fold change and 0.1396 fold change | TNFRSF10D Fold change vs GAPDH (AGS cells [7]; Fig. S4C): 23.1799 fold change and 20.8545 fold change and 25.7647 fold change | CAT (Fold change vs GAPDH) (AGS cells [7]; mRNA vs Control = 1): 0.8688 Fold change and 0.7906 Fold change and 0.9547 Fold change | SOD1 (Fold change vs GAPDH) (AGS cells [7]; mRNA vs Control = 1): 1.921 Fold change and 1.645 Fold change and 2.244 Fold change | SOD2 (Fold change vs GAPDH) (AGS cells [7]; mRNA vs Control = 1): 1.44 Fold change and 1.254 Fold change and 1.654 Fold change | MKI67 Fold change vs GAPDH (MKN45 cells [8]; MKN45, Fig. S4C): 0.1536 fold change and 0.123 fold change and 0.1918 fold change | TNFRSF10D Fold change vs GAPDH (MKN45 cells [8]; MKN45, Fig. S4C): 1.273 fold change and 0.9869 fold change and 1.641 fold change | CAT (Fold change vs GAPDH) (MKN45 cells [8]; MKN45, mRNA vs Control = 1): 0.5641 Fold change and 0.4321 Fold change and 0.7364 Fold change | SOD1 (Fold change vs GAPDH) (MKN45 cells [8]; MKN45, mRNA vs Control = 1): 2.6 Fold change and 2.293 Fold change and 2.9486 Fold change | SOD2 (Fold change vs GAPDH) (MKN45 cells [8]; MKN45, mRNA vs Control = 1): 1.053 Fold change and 0.9005 Fold change and 1.465 Fold change | CDKN1A, Fold change vs GAPDH (MKN45 cells [8]; [12]): 3.253 fold change and 2.596 fold change and 4.076 fold change | IL-6, Fold change vs GAPDH (MKN45 cells [8]; [12]): 0.4948 fold change and 2.435 fold change and 1.266 fold change | MMP-1, Fold change vs GAPDH (MKN45 cells [8]; [12]): 7.796 fold change and 5.223 fold change and 11.6341 fold change | Fold change MAP2K3 vs GAPDH (MKN45 cells [8]; MKN45, Fig. 4B, replicate values): 1.986 fold change and 1.696 fold change and 2.324 fold change

Source: article PMC10959927, “Platinum iodido drugs show potential anti-tumor activity, affecting cancer cell metabolism and inducing ROS and senescence in gastrointestinal cancer cells” (Communications Biology, 2024)
